Results reported in publication PMC4045324 (Biochemistry, 2014).

Tests used:
[1] = molecular target: MtDXR W203Y (Mycobacterium tuberculosis, UniProt P9WNS1, W203Y)
[2] = molecular target: MtDXR W203F (Mycobacterium tuberculosis, UniProt P9WNS1, W203F)

## O=CN(O)CCCP(=O)(O)O [fosmidomycin]
[1]
  binding enthalpy more exothermic than wild type by: 22.6 kJ/mol
  enthalpy share of total binding energy (enthalpy-driven binding): 91%
[1]; pH 7.5
  ΔG°: –11.26 ± 0.19 kcal/mol
  ΔH°: –10.2 ± 0.3 kcal/mol
  –TΔS°: –1.0 ± 0.4 kcal/mol
[2]
  binding enthalpy more exothermic than wild type by: 11.7 kJ/mol
  enthalpy share of total binding energy (enthalpy-driven binding): 75%
[2]; pH 7.5
  ΔG°: –10.10 ± 0.05 kcal/mol
  ΔH°: –7.6 ± 0.7 kcal/mol
  –TΔS°: –2.5 ± 0.7 kcal/mol
